Reference: the NIST ThermoML archive (doi:10.1021/je100423n)

Assays:
[1] = Crystal; DTA
[2] = Molar enthalpy of transition or fusion; conditions: Crystal; DSC
[3] = molar heat capacity at constant pressure; conditions: 101.33 kPa, Crystal

Cn1cc[n+](CCCS(=O)(=O)[O-])c1 [3-(1-methyl-1H-imidazolium-3-yl)propane-1-sulfonate]
Conditions | Molar enthalpy of transition or fusion [kcal/mol] | Normal melting temperature [°C]
[1] | – | 217.30
[2] | 6.78 | –

[3]
Conditions | molar heat capacity at constant pressure [J/K/mol]
79.8 K | 86.51
81.82 K | 88.12
83.72 K | 89.95
85.64 K | 89.73
87.56 K | 93.2
89.49 K | 95.76
91.4 K | 97.65
93.32 K | 99.15
95.24 K | 102.59
97.17 K | 103.14
99.12 K | 102.97
101.85 K | 103.15
104.55 K | 104.71
106.45 K | 105.28
108.39 K | 105.7
110.33 K | 111.76
112.29 K | 111.65
114.18 K | 111.92
116.13 K | 115.43
118.1 K | 116.28
120.05 K | 114.78
121.97 K | 115.61
123.88 K | 119.92
125.82 K | 122.24
127.79 K | 123.43
129.74 K | 125.12
131.67 K | 124.91
133.59 K | 127.13
135.53 K | 131.14
137.52 K | 130.24
139.48 K | 129.74
141.43 K | 131.92
143.37 K | 134.51
145.33 K | 134.71
147.34 K | 135.23
149.32 K | 136.3
151.86 K | 137.15
154.34 K | 136.69
156.25 K | 139.22
158.24 K | 141.2
160.2 K | 143.21
162.16 K | 143.46
164.1 K | 142.79
166.03 K | 143.55
167.95 K | 145.47
169.86 K | 147.4
171.84 K | 148.97
173.85 K | 149.72
175.86 K | 149.26
177.86 K | 149.24
179.85 K | 152.16
181.84 K | 150.39
183.8 K | 154.14
185.77 K | 156.95
187.72 K | 158.74
189.66 K | 159.79
191.59 K | 160.39
193.51 K | 162.15
195.43 K | 163.86
197.4 K | 164.54
199.41 K | 165.47
201.87 K | 167.03
204.26 K | 168.03
206.21 K | 169.73
208.23 K | 170.72
210.24 K | 171.01
212.24 K | 172.7
214.24 K | 173.59
216.23 K | 174.98
218.22 K | 175.65
220.2 K | 176.48
222.16 K | 177.33
224.13 K | 178.37
226.09 K | 179.05
228.04 K | 180.76
229.98 K | 181.37
231.89 K | 182.01
233.91 K | 183.89
